# Measured values taken from ChEMBL document CHEMBL5665443, “Enzyme Inhibitor Single Concentration assay results for EUbOPEN Chemogenomics Library” (2024).
# Legend:
# [1] = molecular target: DNA-3-methyladenine glycosylase (Homo sapiens) (UniProt P29372); conditions: Compound Concentration 10.0 uM, Hit No;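 also: enzyme assay where MPG cuts a quenched duplex DNA oligonucleotide probe, paired with APE1 for strand incision and turnover, read as fluorescence at 594 nm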
# Description: Inhibition of MPG by quantifying inhibition of MPG-mediated cleavage and dissociation of quenched duplex DNA oligonucleotides, measured as fluorescence at 594 nm. To generate a functional strand incision and increase turn-over this assay is coupled to APE1.
# [2] = molecular target: Uracil-DNA glycosylase (Homo sapiens) (UniProt P13051); conditions: Hit No;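 also: UNG excision on a quenched double-stranded DNA oligo probe, with APE1 added for strand incision and turnover, read as fluorescence at 594 nm as strands separate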
# Description: Inhibition of UNG by quantifying inhibition of UNG-mediated cleavage and dissociation of quenched duplex DNA oligonucleotides, measured as fluorescence at 594 nm. To generate a functional strand incision and increase turn-over this assay is coupled to APE1.
# [3] = molecular target: G/T mismatch-specific thymine DNA glycosylase (Homo sapiens) (UniProt Q13569); conditions: Hit No;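 also: human TDG cleavage of quenched duplex DNA oligonucleotides coupled to APE1, strand release read as fluorescence at 594 nm, inhibition of TDG activity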
# Description: Inhibition of TDG by quantifying inhibition of TDG-mediated cleavage and dissociation of quenched duplex DNA oligonucleotides, measured as fluorescence at 594 nm. To generate a functional strand incision and increase turn-over this assay is coupled to APE1.
# [4] = molecular target: Endonuclease 8-like 1 (Homo sapiens) (UniProt Q96FI4); conditions: Hit No;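 also: fluorescence at 594 nm from quenched duplex DNA oligonucleotides released by NEIL1 cleavage and strand separation, reported as reduction of this enzyme activity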
# Description: Inhibition of NEIL1 by quantifying inhibition of NEIL1-mediated cleavage and dissociation of quenched duplex DNA oligonucleotides, measured as fluorescence at 594 nm.
# [5] = molecular target: T1, Endonuclease 8-like 2 (Homo sapiens) (UniProt Q969S2);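 also: fluorescence at 594 nm reports NEIL2 cutting and release of a quenched double-stranded DNA oligo substrate, reduced signal read as inhibition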
# T1 sequence (whole entry): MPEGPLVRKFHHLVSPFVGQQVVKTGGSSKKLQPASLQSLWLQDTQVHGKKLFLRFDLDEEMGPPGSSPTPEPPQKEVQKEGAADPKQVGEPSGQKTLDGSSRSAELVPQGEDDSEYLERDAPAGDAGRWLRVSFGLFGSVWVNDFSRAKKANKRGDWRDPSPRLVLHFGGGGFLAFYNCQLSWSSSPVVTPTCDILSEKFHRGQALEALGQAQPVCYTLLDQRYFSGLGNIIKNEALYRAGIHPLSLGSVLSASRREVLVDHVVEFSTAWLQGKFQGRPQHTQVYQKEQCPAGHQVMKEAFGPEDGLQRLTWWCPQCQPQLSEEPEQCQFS
# Description: Inhibition of NEIL2 by quantifying inhibition of NEIL2-mediated cleavage and dissociation of quenched duplex DNA oligonucleotides, measured as fluorescence at 594 nm.
# [6] = molecular target: N-glycosylase/DNA lyase (Homo sapiens) (UniProt O15527); conditions: Hit No;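 also: OGG1 cleavage of a quenched duplex DNA oligonucleotide, coupled to APE1 for strand incision, read as fluorescence at 594 nm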
# Description: Inhibition of OGG1 by quantifying inhibition of OGG1-mediated cleavage and dissociation of quenched duplex DNA oligonucleotides, measured as fluorescence at 594 nm. To generate a functional strand incision and increase turn-over this assay is coupled to APE1.
# [7] = molecular target: T2, Single-strand selective monofunctional uracil DNA glycosylase (Homo sapiens) (UniProt Q53HV7); conditions: Hit No;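 also: enzymatic SMUG1 assay coupled with APE1, reading fluorescence at 594 nm released when a quenched double-stranded DNA oligonucleotide substrate is cleaved and separated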
# T2 sequence (whole entry): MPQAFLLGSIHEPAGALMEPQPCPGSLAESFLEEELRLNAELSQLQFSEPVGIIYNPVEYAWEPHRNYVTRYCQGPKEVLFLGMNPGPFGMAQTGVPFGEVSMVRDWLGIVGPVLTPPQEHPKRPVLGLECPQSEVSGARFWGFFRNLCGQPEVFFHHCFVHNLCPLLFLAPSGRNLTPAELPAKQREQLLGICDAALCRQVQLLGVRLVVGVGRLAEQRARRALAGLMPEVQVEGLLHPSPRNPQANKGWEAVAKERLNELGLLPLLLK
# Description: Inhibition of SMUG1 by quantifying inhibition of SMUG1-mediated cleavage and dissociation of quenched duplex DNA oligonucleotides, measured as fluorescence at 594 nm. To generate a functional strand incision and increase turn-over this assay is coupled to APE1.
# [8] = molecular target: T3, Endonuclease III-like protein 1 (Homo sapiens) (UniProt P78549); conditions: Hit No;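 also: enzyme assay tracking NTHL1 cutting and release of a quenched double-stranded DNA oligo substrate, read as fluorescence at 594 nm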
# T3 sequence (whole entry): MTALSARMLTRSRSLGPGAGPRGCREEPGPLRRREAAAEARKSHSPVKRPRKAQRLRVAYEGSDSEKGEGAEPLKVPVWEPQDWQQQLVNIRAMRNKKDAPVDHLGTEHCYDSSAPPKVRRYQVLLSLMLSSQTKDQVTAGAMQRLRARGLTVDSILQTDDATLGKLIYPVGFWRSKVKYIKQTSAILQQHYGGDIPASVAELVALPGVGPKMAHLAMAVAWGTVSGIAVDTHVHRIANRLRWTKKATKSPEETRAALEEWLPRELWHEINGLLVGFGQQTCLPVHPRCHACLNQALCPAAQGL
# Description: Inhibition of NTHL1 by quantifying inhibition of NTHL1-mediated cleavage and dissociation of quenched duplex DNA oligonucleotides, measured as fluorescence at 594 nm.
# [9] = molecular target: Methyl-CpG-binding domain protein 4 (Homo sapiens) (UniProt O95243); conditions: Hit No;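 also: MBD4 activity read as fluorescence at 594 nm from cleavage and release of a quenched duplex DNA oligonucleotide, with APE1 coupled to incise the strand and raise turnover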
# Description: Inhibition of MBD4 by quantifying inhibition of MBD4-mediated cleavage and dissociation of quenched duplex DNA oligonucleotides, measured as fluorescence at 594 nm. To generate a functional strand incision and increase turn-over this assay is coupled to APE1.
# [10] = molecular target: T4, Adenine DNA glycosylase (Homo sapiens) (UniProt Q9UIF7);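 also: human MUTYH activity read as 594 nm fluorescence from cleavage and release of a quenched DNA duplex, coupled with APE1 for strand incision, lower signal meaning inhibition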
# T4 sequence (whole entry): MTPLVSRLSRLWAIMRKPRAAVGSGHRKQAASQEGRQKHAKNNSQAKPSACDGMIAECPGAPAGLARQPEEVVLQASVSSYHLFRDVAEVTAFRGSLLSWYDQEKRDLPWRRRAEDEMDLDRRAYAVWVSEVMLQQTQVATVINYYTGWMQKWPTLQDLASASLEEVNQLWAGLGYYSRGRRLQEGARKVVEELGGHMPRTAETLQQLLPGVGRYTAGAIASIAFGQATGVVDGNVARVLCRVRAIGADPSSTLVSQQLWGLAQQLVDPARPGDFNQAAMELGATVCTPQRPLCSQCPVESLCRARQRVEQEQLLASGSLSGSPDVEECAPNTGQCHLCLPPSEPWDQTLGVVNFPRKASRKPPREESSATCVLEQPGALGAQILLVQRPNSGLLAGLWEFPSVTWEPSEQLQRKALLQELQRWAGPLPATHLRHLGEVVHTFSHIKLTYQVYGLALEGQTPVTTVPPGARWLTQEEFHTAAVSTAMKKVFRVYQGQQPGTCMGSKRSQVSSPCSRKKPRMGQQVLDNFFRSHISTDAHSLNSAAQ
# Description: Inhibition of MUTYH by quantifying inhibition of MUTYH-mediated cleavage and dissociation of quenched duplex DNA oligonucleotides, measured as fluorescence at 594 nm. To generate a functional strand incision and increase turn-over this assay is coupled to APE1.
# [11] = Compound Concentration 10.0 uM, Hit No
# [12] = Compound Concentration 1.0 uM, Hit No
# [13] = Compound Concentration 1.0 uM, Hit Yes
# G/T mismatch-specific thymine DNA glycosylase (Homo sapiens), sequence (Q13569 whole entry): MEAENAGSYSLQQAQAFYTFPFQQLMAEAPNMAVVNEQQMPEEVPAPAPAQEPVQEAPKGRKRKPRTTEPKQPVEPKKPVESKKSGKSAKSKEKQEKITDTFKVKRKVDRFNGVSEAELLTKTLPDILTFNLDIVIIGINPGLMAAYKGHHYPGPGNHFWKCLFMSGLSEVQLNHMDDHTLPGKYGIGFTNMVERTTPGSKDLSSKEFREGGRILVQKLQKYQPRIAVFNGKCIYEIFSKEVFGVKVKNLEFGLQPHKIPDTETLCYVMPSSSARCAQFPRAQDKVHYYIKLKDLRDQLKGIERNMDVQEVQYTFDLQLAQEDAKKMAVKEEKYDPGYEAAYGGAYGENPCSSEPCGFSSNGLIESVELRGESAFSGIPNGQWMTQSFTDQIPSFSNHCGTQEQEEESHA
# DNA-3-methyladenine glycosylase (Homo sapiens), sequence (P29372 whole entry): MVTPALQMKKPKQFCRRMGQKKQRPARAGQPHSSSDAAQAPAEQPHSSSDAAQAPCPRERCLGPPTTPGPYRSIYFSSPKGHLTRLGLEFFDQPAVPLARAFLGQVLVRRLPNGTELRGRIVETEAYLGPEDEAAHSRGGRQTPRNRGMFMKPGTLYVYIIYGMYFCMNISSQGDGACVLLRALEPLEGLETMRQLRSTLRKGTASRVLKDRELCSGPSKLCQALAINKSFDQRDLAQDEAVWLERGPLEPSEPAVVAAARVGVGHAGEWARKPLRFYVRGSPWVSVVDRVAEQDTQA
# Methyl-CpG-binding domain protein 4 (Homo sapiens), sequence (O95243 whole entry, the tested form may be a part): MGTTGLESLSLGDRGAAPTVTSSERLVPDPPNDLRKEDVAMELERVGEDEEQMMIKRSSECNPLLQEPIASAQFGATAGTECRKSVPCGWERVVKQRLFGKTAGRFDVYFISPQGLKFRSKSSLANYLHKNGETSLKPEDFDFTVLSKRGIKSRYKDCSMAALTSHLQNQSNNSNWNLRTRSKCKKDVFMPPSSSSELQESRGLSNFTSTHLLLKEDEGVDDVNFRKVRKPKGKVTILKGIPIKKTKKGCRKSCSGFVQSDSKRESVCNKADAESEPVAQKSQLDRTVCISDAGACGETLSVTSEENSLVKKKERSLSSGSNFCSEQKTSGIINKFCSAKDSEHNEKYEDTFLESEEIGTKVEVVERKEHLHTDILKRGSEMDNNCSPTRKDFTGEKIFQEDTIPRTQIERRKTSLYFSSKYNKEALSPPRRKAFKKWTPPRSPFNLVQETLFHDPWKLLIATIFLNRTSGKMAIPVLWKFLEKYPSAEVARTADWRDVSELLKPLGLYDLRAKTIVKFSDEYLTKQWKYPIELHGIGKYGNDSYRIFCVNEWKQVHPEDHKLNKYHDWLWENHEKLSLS
# Endonuclease 8-like 1 (Homo sapiens), sequence (Q96FI4 whole entry): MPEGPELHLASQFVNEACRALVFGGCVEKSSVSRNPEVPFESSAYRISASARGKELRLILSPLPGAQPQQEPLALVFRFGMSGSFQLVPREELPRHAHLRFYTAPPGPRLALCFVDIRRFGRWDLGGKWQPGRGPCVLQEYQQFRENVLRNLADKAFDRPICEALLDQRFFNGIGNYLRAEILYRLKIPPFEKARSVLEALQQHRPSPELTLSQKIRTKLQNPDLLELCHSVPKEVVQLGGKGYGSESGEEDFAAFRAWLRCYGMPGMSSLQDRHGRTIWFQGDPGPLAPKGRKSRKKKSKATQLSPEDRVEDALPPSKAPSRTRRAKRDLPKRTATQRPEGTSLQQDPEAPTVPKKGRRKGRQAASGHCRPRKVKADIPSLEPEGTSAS
# N-glycosylase/DNA lyase (Homo sapiens), sequence (O15527 whole entry): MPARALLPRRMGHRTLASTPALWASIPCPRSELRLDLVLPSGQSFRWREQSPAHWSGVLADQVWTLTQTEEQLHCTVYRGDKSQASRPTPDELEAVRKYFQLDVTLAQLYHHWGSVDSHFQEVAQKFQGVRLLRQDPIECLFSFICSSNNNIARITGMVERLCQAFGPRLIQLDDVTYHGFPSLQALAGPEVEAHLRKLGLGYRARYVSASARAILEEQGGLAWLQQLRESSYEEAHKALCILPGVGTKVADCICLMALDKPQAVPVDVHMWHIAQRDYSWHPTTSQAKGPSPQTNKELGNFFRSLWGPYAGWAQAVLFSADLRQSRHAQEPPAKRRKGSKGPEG
# Uracil-DNA glycosylase (Homo sapiens), sequence (P13051 whole entry): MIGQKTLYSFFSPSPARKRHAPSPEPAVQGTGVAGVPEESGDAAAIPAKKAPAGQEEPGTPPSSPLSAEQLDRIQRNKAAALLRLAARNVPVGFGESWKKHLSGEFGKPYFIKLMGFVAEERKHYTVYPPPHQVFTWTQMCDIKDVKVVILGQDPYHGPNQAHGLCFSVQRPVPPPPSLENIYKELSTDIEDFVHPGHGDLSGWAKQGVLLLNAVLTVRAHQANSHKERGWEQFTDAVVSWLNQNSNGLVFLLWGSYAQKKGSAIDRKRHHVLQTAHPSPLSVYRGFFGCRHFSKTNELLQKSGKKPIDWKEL
Compound,inhibition [1] [%],inhibition ([2]; Compound Concentration 10.0 uM) [%],inhibition ([3]; Compound Concentration 10.0 uM) [%],inhibition ([4]; Compound Concentration 10.0 uM) [%],"inhibition [5, 11] [%]",inhibition ([6]; Compound Concentration 10.0 uM) [%],inhibition ([7]; Compound Concentration 10.0 uM) [%],inhibition ([8]; Compound Concentration 10.0 uM) [%],inhibition ([9]; Compound Concentration 10.0 uM) [%],"inhibition [10, 11] [%]",other results
CC(C)(O)CCn1c(=O)n(C(=O)N[C@H](C(N)=O)C(C)(C)C)c2ccccc21,-4.33,-9.98,10.8,2.61,1.76,-0.203,-3.57,–,–,–,–
CSc1ccccc1N1CCN(CCCCCC(=O)NC2CCCc3ccccc32)CC1 (stereo not given),6.14,-4.03,1.58,7.57,–,-6.45,-2.78,–,–,–,–
Cn1cc(C(=O)OCC2CCN(CCNS(C)(=O)=O)CC2)c2ccccc21,11.2,–,-0.888,1.28,2.51,–,–,–,–,–,–
COc1ccncc1C(=O)NC(=O)Nc1ccc(-c2ccccc2)c(C(F)(F)F)c1,-3.95,–,-6.05,–,-8.22,-8.25,–,–,–,–,–
O=C(O)C1CN(Cc2ccc(OCc3ccc(Cl)c(Cl)c3)cc2)C1,–,-2.44,18.1,5.13,-3.23,-0.266,12.8,10.7,25,19.2,–
COCCc1ccc(-c2c(C)nc3c(N4CCOCC4)ccnn23)cn1,–,6.75,47.5,-9.68,0.531,9.87,17.6,-3.26,79.3,3.45,–
Cc1ccc(-c2cnc([C@@]3(O)CC[C@H](C(=O)O)C(C)(C)C3)s2)cc1Nc1cccc(C(F)(F)F)n1,–,2.77,58.3,-8.92,–,5.44,11.6,-1.95,60.9,13.4,"inhibition ([8]; Compound Concentration 1.0 uM): -6.89%; inhibition ([2]; Compound Concentration 1.0 uM): -2.23%; inhibition ([9]; Compound Concentration 1.0 uM): 1.64%; inhibition ([3]; Compound Concentration 1.0 uM): 36.9%; inhibition ([4]; Compound Concentration 1.0 uM): -1.05%; inhibition [5, 12]: 1.58%; inhibition ([7]; Compound Concentration 1.0 uM): 6.55%"
CN(C)CC#Cc1ccc2[nH]c3c(c2c1)-c1nc(N)ncc1CCC3,–,–,–,–,–,–,–,–,–,–,"inhibition ([8]; Compound Concentration 1.0 uM): 10.6%; inhibition ([2]; Compound Concentration 1.0 uM): 3.22%; inhibition ([9]; Compound Concentration 1.0 uM): 3.44%; inhibition ([3]; Compound Concentration 1.0 uM): 46.8%; inhibition ([4]; Compound Concentration 1.0 uM): 2.65%; inhibition [10, 12]: 1.71%; inhibition [5, 12]: 4.81%; inhibition ([6]; Compound Concentration 1.0 uM): 3.18%; inhibition ([7]; Compound Concentration 1.0 uM): 11.2%"
CNCc1ccccc1-c1csc([C@H](C)Nc2nc(C)nc3cc(OC)c(OC)cc23)c1,–,–,–,–,–,–,–,–,–,–,"inhibition ([8]; Compound Concentration 1.0 uM): 2.66%; inhibition ([2]; Compound Concentration 1.0 uM): 6.69%; inhibition ([9]; Compound Concentration 1.0 uM): 58.7%; inhibition ([3]; Compound Concentration 1.0 uM): 97.8%; inhibition ([4]; Compound Concentration 1.0 uM): -4.23%; inhibition [10, 13]: 36.2%; inhibition [5, 13]: 26.3%; inhibition ([6]; Compound Concentration 1.0 uM): 6.33%; inhibition ([7]; Compound Concentration 1.0 uM): 19.4%"
CC(C)c1cc(-c2ccc(F)c3ccccc23)nc(N)n1,-4.83,–,-7.89,5.58,7.25,2.18,-9.82,–,–,–,–
COC(=O)[C@H]1[C@H]2C[C@H]3c4[nH]c5ccccc5c4CCN3C[C@H]2CC[C@@H]1O,14.5,–,5.99,2.02,9.75,-6.57,–,–,–,–,–
C[C@@H]1CCc2ncc(F)cc2[C@H]2CCCN2c2ccn3ncc(c3n2)C(=O)N1,–,4.92,40.3,2.25,-1.65,2.29,26.7,-1.31,0.277,17.4,–
O=C(NOCC1CC1)c1ccc(F)c(F)c1Nc1ccc(I)cc1Cl,–,–,–,–,–,–,–,–,–,–,"inhibition ([8]; Compound Concentration 1.0 uM): 15.4%; inhibition ([2]; Compound Concentration 1.0 uM): -3%; inhibition ([9]; Compound Concentration 1.0 uM): 41.9%; inhibition ([3]; Compound Concentration 1.0 uM): 57%; inhibition ([4]; Compound Concentration 1.0 uM): -9.77%; inhibition [10, 12]: 4.86%; inhibition [5, 12]: -7.84%; inhibition ([6]; Compound Concentration 1.0 uM): 1.82%; inhibition ([7]; Compound Concentration 1.0 uM): 8.89%"
Cc1csc2c(N[C@@H](C)CN3CCN(S(=O)(=O)c4ccc(Cl)c(Cl)c4)CC3)ncnc12,-1.59,–,16.4,0.834,-5.22,-1.28,-6.62,–,–,–,–
CCCCCCCN(CCc1ccc(SC(C)(C)C(=O)O)cc1)C(=O)Nc1ccc(F)cc1F,–,3.11,50.5,-8.92,-7.12,44.6,26.9,5.29,74.5,26,–
CCC(=O)N1CCN(c2ccc(-n3c(=O)ccc4cnc5ccc(-c6cnc7ccccc7c6)cc5c43)cc2C(F)(F)F)CC1,–,–,–,–,–,–,–,–,–,–,"inhibition ([8]; Compound Concentration 1.0 uM): 6.36%; inhibition ([2]; Compound Concentration 1.0 uM): 3.95%; inhibition ([9]; Compound Concentration 1.0 uM): -7.49%; inhibition ([3]; Compound Concentration 1.0 uM): 59%; inhibition ([4]; Compound Concentration 1.0 uM): -7.39%; inhibition [10, 12]: 15.3%; inhibition [5, 12]: -7.57%; inhibition ([6]; Compound Concentration 1.0 uM): 10.6%; inhibition ([7]; Compound Concentration 1.0 uM): 24.3%"
C[C@H](NC(=O)c1c(C(F)F)nn(C)c1Oc1cccc(C(F)(F)F)c1)c1ccc(C(=O)O)cc1,–,-7.93,11.8,-3.02,11.8,-5.88,2.15,16.6,-2.06,15.2,–
CC(C)CC(=O)N1CCc2nc(-c3ccc(Br)cc3)nc(N(C)Cc3ccccc3)c2C1,–,–,–,–,–,–,–,–,–,–,"inhibition ([8]; Compound Concentration 1.0 uM): -3.26%; inhibition ([2]; Compound Concentration 1.0 uM): 0.688%; inhibition ([9]; Compound Concentration 1.0 uM): 55.1%; inhibition ([3]; Compound Concentration 1.0 uM): 35.8%; inhibition ([4]; Compound Concentration 1.0 uM): -9.83%; inhibition [10, 12]: -1.09%; inhibition [5, 12]: -1.25%; inhibition ([6]; Compound Concentration 1.0 uM): 5%; inhibition ([7]; Compound Concentration 1.0 uM): 4.46%"

# Now from value to compound, other results behind:
inhibition [1] [%],inhibition ([2]; Compound Concentration 10.0 uM) [%],inhibition ([3]; Compound Concentration 10.0 uM) [%],inhibition ([4]; Compound Concentration 10.0 uM) [%],"inhibition [5, 11] [%]",inhibition ([6]; Compound Concentration 10.0 uM) [%],inhibition ([7]; Compound Concentration 10.0 uM) [%],inhibition ([8]; Compound Concentration 10.0 uM) [%],inhibition ([9]; Compound Concentration 10.0 uM) [%],"inhibition [10, 11] [%]",Compound,other results
-3.29,-3.75,0.0736,0.454,-6.46,–,-1.14,–,–,–,CC(C)Oc1ccc(Cc2ccc(NC3=NCCN3)cc2)cc1,–
-2.4,–,-4.53,-1.39,-9.97,-2.46,–,–,–,–,O=c1ccn([C@@H]2O[C@H](COP(=O)(O)OP(=O)(O)OP(=O)(O)O)[C@@H](O)[C@H]2O)c(=O)[nH]1,–
–,8.04,49.6,-4.68,4.61,11.4,15.8,5.94,71.5,12.1,CC[C@H](C)C(=O)O[C@H]1C[C@@H](C)C=C2C=C[C@H](C)[C@H](CC[C@@H]3C[C@@H](O)CC(=O)O3)[C@H]21,–
–,6.88,48.4,1.53,-5.08,2.54,18.4,-3.26,96.5,9.89,CC(=O)Nc1ncc(CN2CCC[C@H](Cc3cc(C)nc(C)c3)C2)s1,–
–,-1.75,97.9,-8.02,-9.67,-1.34,15.8,4.63,65.5,-4.04,CCOC(=O)Nc1ccc2c(c1)N(C(=O)CN(CC)CC)c1ccccc1CC2,–
–,8.59,62.4,-1.58,-0.0337,-3.5,26.7,4.27,0.374,13.1,CC(C)NC(=O)N1CC[C@H](NC2=Nc3cc(F)ccc3N(CC(F)F)c3ccc(Cl)cc32)C1,–
